Series [1] is described as follows: Particle size by laser diffractometry (Malvern Mastersizer) following micronisation. Particulars: for Feed particles % <10 μm: before micronisation; for % <10 μm / D(0.1) / D(0.5) / D(0.9): result after micronisation. The format is physicochemical. The source says:
In a still further embodiment the composition comprises rabeximod in the form of a dry powder, e.g. a micronized powder. The particle size distribution can be determined by means of laser diffractometry. In a preferred embodiment, a Malvern Instru-ments Mastersizer is used to determine the particle size distribution. Using a Malvern Mastersizer apparatus, volume-based size distribution parameters will typically be re-ported, e.g. in the form of the D10, D50 and D90 values. The average particle size (D50-value), which is also denoted D50-value of the integral volume distribution, is defined in the context of this invention as the particle diameter at which 50 percent by volume of the particles have a smaller diameter than the diameter which corresponds to the D50-value. Likewise, 50 percent by volume of the particles have a larger diameter than the D50-value. Analogously, the D90-value of the integral volume distribution is defined as the particle diameter at which 90 percent by volume of the particles have a smaller diameter than the diameter which corresponds to the D90-value. Corre-spondingly, the D10-value of the integral volume distribution is defined as the particle diameter at which 10 percent by volume of the particles have a smaller diameter than the diameter which corresponds to the D10-value. Typically, in accordance with the present invention, the Rabeximod (micronized) dry powder has a particle size characterized by a D10 within the range of 0.5-1.0 μm, a D50 within the range of 1.5-3.5 μm, and/or a D90 within the range of 5.5-9.9 μm, when measured using laser light diffractometry.
The micronisation operation is performed using a standard jet-mill. The set point for the particle size was that not less than 90% of the particles should be smaller than 10 μm. In-process samples were drawn and analyzed using a Malvern Mastersizer during the process to verify that a sufficient size reduction had been achieved (Malvern Mastersizer 2000 instrument, equipped with a Scirocco 2000(A) dispersion unit and a Micro Tray, operated at 2.5 bar, a feed rate of 60%, a measuring time of 5 seconds and a background time of 5 second; compliant with Ph.Fur method 2.9.31).
Results of the micronisation step in particle size is provided in Table 1 for Rabeximod drug substance batches.

Another series relates to healthy male volunteers. The experiment in a line: Phase 1 clinical trial: safety, tolerability, pharmacokinetics of single and multiple oral rising doses. The format is in vivo, human. The source says:
The Phase 1 study assessed the safety, tolerability, pharmacokinetics and pharmacodynamics of single and multiple oral rising doses of Rabeximod (in a capsule formulation as described in the preceding sections) in healthy male volunteers. The study also included an open-label, randomised, two-period crossover part that was designed to investigate the effect of food on the pharmacokinetics of Rabeximod. In total, 87 healthy male subjects were enrolled into the study.

In series [2] the test system is patients diagnosed with active RA. As to the kind of experiment: Phase II clinical trial in combination with stable dose of methotrexate. The format is in vivo, human. How it is done:
A total of 225 patients diagnosed with active RA based on the American Rheu-matism Association (ARA) revised criteria were randomized to receive one of the following treatments: • 6.25 mg of Rabeximod (daily) • 15 mg of Rabeximod (daily) • 37.5 mg of Rabeximod (daily) • Placebo
Study drug was provided in the form of a capsule comprising micronized rabeximod, as described in the preceding sections. Placebo was provided in the form of a capsule identical in appearance to the study drug formulation. In all treatment groups patients were required to continue taking a stable dose of methotrexate. Over 200 patients completed the study. During the study, safety, efficacy and pharmaco-kinetic/pharmacodynamic properties of the study drug formulation were assessed with appropriate tests.

Here are results for 6 compounds from US12673056B2, “Oral formulation comprising a crystalline form of rabeximod” (Cyxone AB, priority 2020, dated 2026).

On to `Cc1cc2nc3c4cc(Cl)ccc4n(CC(=O)NCCN(C)C)c3nc2cc1C` [compound 153], for which, in series [1], the “Feed particles % <10 μm” value is listed as 32.7%, the “% <10 μm” value came out at 99.1%, the “D(0.1)” value stood at 0.6 μm and the “D(0.5)” value amounted to 1.9 μm. In addition, the “D(0.9)” value in series [1] was found to be 5.7 μm.

As for `Cc1cc2nc3c4cc(Cl)ccc4n(CC(=O)NCCN(C)C)c3nc2cc1C` [146-32], in series [1], the “Feed particles % <10 μm” value stood at 41.9%, the “% <10 μm” value stood at 98.1%, the “D(0.1)” value amounted to 0.7 μm and the “D(0.5)” value is given as 2.2 μm. Besides, in series [1], the “D(0.9)” value came to 8.2 μm.

As to `Cc1cc2nc3c4cc(Cl)ccc4n(CC(=O)NCCN(C)C)c3nc2cc1C` [Rabeximod, 9-Chloro-2,3-dimethyl-6-(N,N-dimethylaminoethylamino-2-oxoethyl)-6H-indolo-[2,3b]quinoxaline], the “time plasma concentrations measurable post dose” value in the series with healthy male volunteers (on average, following repeated once daily dosing (Day 14)) is reported as “up to 168 hours”. For the same compound, the “increase of systemic exposure (AUC0-t) with dose” value with healthy male volunteers (repeated once daily administration) is given as “trend was also noted”; in the series on healthy male volunteers (single administration at 12.5 mg to 600 mg) it was “approximately dose-proportional”. The “tolerability, higher doses” value in the series on healthy male volunteers (single dose of 600 mg, and multiple dose of 600 mg loading followed by 100 mg) is reported as “less well tolerated due to phototoxicity reactions”. Further, the “tolerability, single doses” value in the series on healthy male volunteers (single oral doses up to 400 mg) was “well tolerated”. Further, the “tolerability, multiple oral doses” value in the series with healthy male volunteers (up to a 200 mg loading dose followed by 50 mg maintenance dose) was “well tolerated”. Further, the “most optimal treatment based on the efficacy and safety results” value in series [2] (15 mg daily) is reported as “most optimal”. Besides, in series [2] (6.25, 15 or 37.5 mg daily with methotrexate, p<0.05), the “effects for key secondary endpoints of treatment” value is “therapeutically meaningful and statistically significant”. Further, the “predicted increase of AUC0-t and Cmax for a doubling in dose” value in series [2] (Power Model, dose range 6.25 to 37.5 mg, patients with moderate or severe RA, on average) is recorded as 2 fold. In addition, the “kinetics with respect to time (accumulation in plasma consistent with t1/2)” value in series [2] (repeated oral administration) is on record as “linear with respect to time”.

In the case of `Cc1cc2nc3c4cc(Cl)ccc4n(CC(=O)NCCN(C)C)c3nc2cc1C` [262-2], in series [1], the “Feed particles % <10 μm” value was 32.6%, the “% <10 μm” value is given as 92.6%, the “D(0.1)” value stood at 0.7 μm and the “D(0.5)” value is recorded as 2.2 μm. In addition, the “D(0.9)” value in series [1] was determined as 7.6 μm.

Regarding `Cc1cc2nc3c4cc(Cl)ccc4n(CC(=O)NCCN(C)C)c3nc2cc1C` [262-1], in series [1], the “Feed particles % <10 μm” value amounted to 29.0%, the “% <10 μm” value is 94.5%, the “D(0.1)” value was 0.7 μm and the “D(0.5)” value came out at 2.2 μm. The “D(0.9)” value in series [1] came out at 8.4 μm.

Turning to `Cc1cc2nc3c4cc(Cl)ccc4n(CC(=O)NCCN(C)C)c3nc2cc1C` [compound 149], in series [1], the “Feed particles % <10 μm” value worked out at 30.9%, the “% <10 μm” value worked out at 99.1%, the “D(0.1)” value is reported as 0.6 μm and the “D(0.5)” value stood at 2.0 μm. In series [1], the “D(0.9)” value worked out at 5.9 μm.
